# From publication PMC7587356, “High-Throughput Screening for Inhibitors of the SARS-CoV-2 Protease Using a FRET-Biosensor” (Molecules, 2020)
# Structures can show the parent of a compound that is named as a salt. Where two headings read alike, the source gives them in different places.
# Target: SARS-CoV-2 3CLpro (Severe acute respiratory syndrome coronavirus 2, UniProt P0DTD1)
# Test: biochemical
# Format: biochemical
# Parameters: Replicate_1 / Replicate_2 / mean / mean (LOPAC_screen_w_protease): unit not given here
# Conditions: for inhibition at 5 µM: 4 h; for mean (LOPAC screen with protease) / Replicate_1 (LOPAC screen with protease) / Replicate_2 (LOPAC screen with protease): primary screen at 5 µM
# [1] = LOPAC1280 primary screen with protease, 5 µM compound, replicate 1, read-out: Replicate_1 (LOPAC_screen_w_protease)
# [2] = LOPAC1280 primary screen with protease, 5 µM compound, replicate 2, read-out: Replicate_2 (LOPAC_screen_w_protease)
# [3] = LOPAC1280 primary screen with protease, 5 µM compound, mean of two replicates
# [4] = sheet LOPAC_screen_w_protease, mean of two replicates
# [5] = sheet LOPAC_screen_w_protease, replicate 1
# [6] = sheet LOPAC_screen_w_protease, replicate 2
# [7] = sheet LOPAC_screen_w_protease, LOPAC1280 primary screen at 5 µM, with protease, mean of the two replicates
# [8] = sheet LOPAC_screen_w_protease, LOPAC1280 primary screen at 5 µM, with protease, replicate 1
# [9] = sheet LOPAC_screen_w_protease, LOPAC1280 primary screen at 5 µM, with protease, replicate 2
# [10] = sheet LOPAC_screen_w_protease, LOPAC1280 at 5 µM, mean of two replicates
# [11] = sheet LOPAC_screen_w_protease, LOPAC1280 at 5 µM, replicate 1
# [12] = sheet LOPAC_screen_w_protease, LOPAC1280 at 5 µM, replicate 2
# [13] = read-out: Replicate_1 (LOPAC_screen_w_protease)
# [14] = read-out: Replicate_2 (LOPAC_screen_w_protease)
# [15] = sheet LOPAC_screen_w_protease, primary screen with protease, 5 µM, mean of two replicates
# [16] = sheet LOPAC_screen_w_protease, primary screen with protease, 5 µM, replicate 1
# [17] = sheet LOPAC_screen_w_protease, primary screen with protease, 5 µM, replicate 2
# [18] = LOPAC1280 primary screen with protease, 5 µM compound, mean of the two replicates
# [19] = LOPAC1280 primary screen with protease, 5 µM compound, replicate 1
# [20] = LOPAC1280 primary screen with protease, 5 µM compound, replicate 2
# [21] = sheet LOPAC_screen_w_protease, LOPAC1280 primary screen with protease, 5 µM compound, mean of the two replicates
# [22] = sheet LOPAC_screen_w_protease, LOPAC1280 primary screen with protease, 5 µM compound, replicate 1
# [23] = sheet LOPAC_screen_w_protease, LOPAC1280 primary screen with protease, 5 µM compound, replicate 2
# [24] = sheet LOPAC_screen_w_protease, LOPAC1280 at 5 µM, mean of two replicates, read-out: mean
# [25] = sheet LOPAC_screen_w_protease, LOPAC1280 at 5 µM, replicate 1, read-out: Replicate_1
# [26] = sheet LOPAC_screen_w_protease, LOPAC1280 at 5 µM, replicate 2, read-out: Replicate_2
# [27] = sheet LOPAC_screen_w_protease, primary screen with protease, compound at 5 µM, mean of two replicates
# [28] = sheet LOPAC_screen_w_protease, primary screen with protease, compound at 5 µM, replicate 1
# [29] = sheet LOPAC_screen_w_protease, primary screen with protease, compound at 5 µM, replicate 2
compound,measurement,setting,value
CN1[C@@H]2CC[C@H]1C[C@@H](OC(c1ccccc1)c1ccccc1N)C2 (stereo partly drawn) [Aminobenztropine],inhibition at 5 µM,"sheet LOPAC_screen_w_protease, primary screen with protease, compound at 5 µM, mean of two replicates, read-out: mean",3.04%
same,inhibition at 5 µM,"sheet LOPAC_screen_w_protease, primary screen with protease, compound at 5 µM, replicate 1, read-out: Replicate_1",2.54%
same,inhibition at 5 µM,"sheet LOPAC_screen_w_protease, primary screen with protease, compound at 5 µM, replicate 2, read-out: Replicate_2",3.53%
N=c1ccn2c(n1)O[C@H]1[C@H](O)[C@@H](CO)O[C@H]12 [Ancitabine hydrochloride],inhibition at 5 µM,"sheet LOPAC_screen_w_protease, primary screen with protease, mean of two replicates, read-out: mean",2.45%
same,inhibition at 5 µM,"sheet LOPAC_screen_w_protease, primary screen with protease, replicate 1, read-out: Replicate_1",2.42%
same,inhibition at 5 µM,"sheet LOPAC_screen_w_protease, primary screen with protease, replicate 2, read-out: Replicate_2",2.49%
Cc1nc2sccn2c(=O)c1CCN1CCC(=C(c2ccc(F)cc2)c2ccc(F)cc2)CC1 [Ritanserin],inhibition at 5 µM,[1],2.24%
same,inhibition at 5 µM,[2],0.502%
same,mean (LOPAC_screen_w_protease),[3],1.373
N[C@@H](Cn1cc(I)c(=O)[nH]c1=O)C(=O)O [S-5-Iodowillardiine],mean (LOPAC screen with protease),[4],6.582
same,Replicate_1 (LOPAC screen with protease),[5],5.993
same,Replicate_2 (LOPAC screen with protease),[6],7.171
COc1ccc2c(c1)c(CC(=O)O)c(C)n2C(=O)c1ccc(Cl)cc1 [Indomethacin],Replicate_1,,3.273
same,Replicate_2,,1.395
same,mean,,2.334
C[N+](C)(CCCCCC[N+](C)(C)CCCN1C(=O)c2cccc3cccc(c23)C1=O)CCCN1C(=O)c2cccc3cccc(c23)C1=O.[Br-].[Br-] [WB 64],mean,[7],0.6302
same,Replicate_1,[8],0.2165
same,Replicate_2,[9],1.044
CCNC(=O)[C@H]1O[C@@H](n2cnc3c(NCc4ccccc4)ncnc32)[C@H](O)[C@@H]1O [N6-Benzyl-5'-N-ethylcarboxamidoadenosine],mean,[10],1.239
same,Replicate_1,[11],-0.1675
same,Replicate_2,[12],2.645
Cc1cccc(C)c1OCC(N)C(C)C.I (stereo not drawn) [R(-)-Me5],mean (LOPAC screen with protease),[4],9.695
same,Replicate_1 (LOPAC screen with protease),[5],9.8488
same,Replicate_2 (LOPAC screen with protease),[6],9.541
CCN1C[C@]2(C)CC[C@H](O)[C@]34C1[C@@H](C[C@H]23)[C@@]1(O)C[C@H](OC)[C@H]2C[C@@H]4[C@@H]1[C@H]2O [Karakoline],mean (LOPAC_screen_w_protease),,1.99
same,inhibition at 5 µM,[13],1.52%
same,inhibition at 5 µM,[14],2.46%
COc1cc(CC(=O)O)ccc1O [4-Hydroxy-3-methoxyphenylacetic acid],mean,[15],0.06748
same,Replicate_1,[16],3.737
same,Replicate_2,[17],-3.602
CC1(C)NC(=O)N(c2ccc([N+](=O)[O-])c(C(F)(F)F)c2)C1=O [Nilutamide],inhibition at 5 µM,"sheet LOPAC_screen_w_protease, LOPAC1280 primary screen at 5 µM, with protease, mean of the two replicates, read-out: mean",0.761%
same,inhibition at 5 µM,"sheet LOPAC_screen_w_protease, LOPAC1280 primary screen at 5 µM, with protease, replicate 1, read-out: Replicate_1",2.22%
same,inhibition at 5 µM,"sheet LOPAC_screen_w_protease, LOPAC1280 primary screen at 5 µM, with protease, replicate 2, read-out: Replicate_2",-0.697%
Cl.Cl.Clc1cccc(N2CCNCC2)c1,mean,[7],0.4258
same,Replicate_1,[8],0.3435
same,Replicate_2,[9],0.5081
N#CC(=Cc1c[nH]c2ccccc12)C(=O)c1ccc(O)c(O)c1 [Tyrphostin AG 808],mean (LOPAC_screen_w_protease),[18],1.999
same,Replicate_1 (LOPAC_screen_w_protease),[19],2.979
same,Replicate_2 (LOPAC_screen_w_protease),[20],1.0189
O=C(O)/C=C/C(=O)O.O=C(O)/C=C/C(=O)O.O=C(O)/C=C/C(=O)O.O=C1CCCN1CC#CCN1CCCC1.O=C1CCCN1CC#CCN1CCCC1 [Oxotremorine sesquifumarate salt],mean,[21],4.476
same,Replicate_1,[22],3.394
same,Replicate_2,[23],5.5586
C[C@]12CCC(=O)C=C1CC[C@@H]1[C@@H]2CC[C@@]2(C)[C@H]1CC[C@]2(O)C(=O)CO [Cortexolone],inhibition at 5 µM,[24],1.01%
same,inhibition at 5 µM,[25],2.17%
same,inhibition at 5 µM,[26],-0.141%
Cl.NCCc1ccc(O)cc1 [4-Hydroxyphenethylamine hydrochloride],mean,[7],0.878
same,Replicate_1,[8],0.5582
same,Replicate_2,[9],1.1978
C[C@H](O)[C@H](O)[C@H]1CNc2nc(N)[nH]c(=O)c2N1.Cl,mean,[27],3.136
same,Replicate_1,[28],3.694
same,Replicate_2,[29],2.577
CC(CCc1ccc(O)cc1)NCCc1ccc(O)c(O)c1 (stereo not drawn) [Dobutamine hydrochloride],inhibition at 5 µM,[1],2.05%
same,inhibition at 5 µM,[2],2.06%
same,mean (LOPAC_screen_w_protease),[18],2.053
C[C@]12CCC(=O)C=C1CC[C@@H]1[C@@H]2[C@@H](O)C[C@@]2(C)[C@H]1CC[C@]2(O)C(=O)COC(=O)CCC(=O)[O-].[Na+] [Hydrocortisone 21-hemisuccinate sodium],mean,[10],1.066
same,Replicate_1,[11],1.635
same,Replicate_2,[12],0.4974
COC(=O)C(N)Cc1ccc(Cl)cc1.Cl (racemic),mean,[7],0.6507
same,Replicate_1,[8],2.428
same,Replicate_2,[9],-1.1263
NCCCCN=C(N)N [Agmatine sulfate],inhibition at 5 µM,[24],1.26%
same,inhibition at 5 µM,[25],0.743%
same,inhibition at 5 µM,[26],1.77%
Nc1nc(Cl)nc2c1ncn2[C@@H]1O[C@H](COP(=O)(O)OP(=O)(O)OP(=O)(O)O)C(O)C1O (stereo in doubt),mean (LOPAC_screen_w_protease),[3],1.575
same,Replicate_1 (LOPAC_screen_w_protease),[19],3.171
same,Replicate_2 (LOPAC_screen_w_protease),[20],-0.0216
(+)-Catechin Hydrate,mean (LOPAC screen with protease),[4],22.7149
same,Replicate_1 (LOPAC screen with protease),[5],22.57
same,Replicate_2 (LOPAC screen with protease),[6],22.8597
CCCCc1oc2ccccc2c1C(=O)c1cc(I)c(OCCN(CC)CC)c(I)c1 [Amiodarone hydrochloride],inhibition at 5 µM,read-out: Replicate_1,2.09%
same,inhibition at 5 µM,read-out: Replicate_2,4.04%
same,inhibition at 5 µM,read-out: mean,3.06%
CN1C[C@H](O)[C@@H](O)[C@H](O)[C@H]1CO [N-Methyl-1-deoxynojirimycin],mean,[21],4.2727
same,Replicate_1,[22],3.9484
same,Replicate_2,[23],4.597
O=c1[nH]c2cc(C(F)(F)F)ccc2n1-c1cc(C(F)(F)F)ccc1O [NS-1619],mean (LOPAC screen with protease),[4],7.54
same,Replicate_1 (LOPAC screen with protease),[5],6.544
same,Replicate_2 (LOPAC screen with protease),[6],8.536
C[C@@H]1O[C@H](C[N+](C)(C)C)C[C@H]1O.[Cl-] (racemic) [(±)-Muscarine chloride],mean,[21],5.0033
same,Replicate_1,[22],6.646
same,Replicate_2,[23],3.361
"C[C@]12CCC(=O)C(O)=C1CC[C@@H]1[C@@H]2CC[C@]2(C)C(=O)CC[C@@H]12 [4-Androsten-4-ol-3,17-dione]",mean,[15],0.2033
same,Replicate_1,[16],1.5144
same,Replicate_2,[17],-1.108
CCCN(CCc1ccccc1)C1CCc2c(O)cccc2C1.Cl (racemic) [(±)-PPHT hydrochloride],mean,[10],1.126
same,Replicate_1,[11],1.344
same,Replicate_2,[12],0.9086
CNc1ncnc2c1ncn2[C@H]1C[C@H](OP(=O)(O)O)[C@@H](COP(=O)(O)O)O1 [MRS 2179],mean,[21],4.143
same,Replicate_1,[22],4.368
same,Replicate_2,[23],3.917
Cn1cnc([N+](=O)[O-])c1Sc1ncnc2nc[nH]c12 [Azathioprine],mean (LOPAC_screen_w_protease),,1.638
same,inhibition at 5 µM,[13],1.71%
same,inhibition at 5 µM,[14],1.57%
Oc1ccc(O)cc1 [Hydroquinone],inhibition at 5 µM,read-out: Replicate_1,3.41%
same,inhibition at 5 µM,read-out: Replicate_2,-0.951%
same,inhibition at 5 µM,read-out: mean,1.23%
Clc1ccccc1C(c1ccccc1)(c1ccccc1)n1ccnc1 [Clotrimazole],inhibition at 5 µM,read-out: Replicate_1,3.08%
same,inhibition at 5 µM,read-out: Replicate_2,3.07%
same,inhibition at 5 µM,read-out: mean,3.07%
"COc1cccc(-c2cc(=O)c3ccccc3o2)c1N [PD 98,059]",Replicate_1,,3.541
same,Replicate_2,,1.402
same,mean,,2.471
CN(C)CCC(c1ccc(Br)cc1)c1ccccn1.O=C(O)/C=C\C(=O)O (racemic) [(±)-Brompheniramine maleate],mean,[27],2.6339
same,Replicate_1,[28],2.5605
same,Replicate_2,[29],2.707
CN(C)CCCO[C@@H]1[C@H]2OC(C)(C)O[C@H]2O[C@@H]1[C@H](O)CO [Amiprilose hydrochloride],inhibition at 5 µM,[24],1.08%
same,inhibition at 5 µM,[25],1.63%
same,inhibition at 5 µM,[26],0.526%
COc1ccc2c(c1)c(CC(=O)O)c(C)n2C(=O)c1ccccc1,mean,"sheet LOPAC_screen_w_protease, primary screen with protease, mean of two replicates",2.541
same,Replicate_1,"sheet LOPAC_screen_w_protease, primary screen with protease, replicate 1",2.008
same,Replicate_2,"sheet LOPAC_screen_w_protease, primary screen with protease, replicate 2",3.073
